Experimental data as given in PubChem BioAssay AID1963980 (Molecular Pharmacology Branch, DTP, NCI, 2024).

System: 475296-252-R-J1-PDC spheroid viability
Assay: Anticancer human tumor 475296-252-R-J1-PDC patient-derived rectal carcinoma cell line growth inhibition [PI3K]
Settings: spheroids with HUVEC and MSC; for IC50: curve of first compound; for viability, T/C: stronger effect = lower value; active = viability on the fitted dose curve at most 10% of control; inactive = the rest
How it was run: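 We assembled tumor spheroids that included a stromal compartment of HUVEC and MSCs, then exposed them to targeted agents alone and together with PI3K pathway inhibitors. Concentration series descended by half-log from clinically achievable Cmax levels. Viability served as the endpoint.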

[1] = second compound 0.0316 µM, first compound 0.000316 µM
[2] = second compound 0.0316 µM, first compound 0.001 µM
[3] = second compound 0.0316 µM, first compound 0.00316 µM
[4] = second compound 0.0316 µM, first compound 0.01 µM
[5] = second compound 0.0316 µM, first compound 0.0316 µM
[6] = second compound 0.0316 µM, first compound 0.1 µM
[7] = second compound 0.1 µM, first compound 0.000316 µM
[8] = second compound 0.1 µM, first compound 0.001 µM
[9] = second compound 0.1 µM, first compound 0.00316 µM
[10] = second compound 0.1 µM, first compound 0.01 µM
[11] = second compound 0.1 µM, first compound 0.0316 µM
[12] = second compound 0.1 µM, first compound 0.1 µM
[13] = second compound 0.316 µM, first compound 0.000316 µM
[14] = second compound 0.316 µM, first compound 0.001 µM
[15] = second compound 0.316 µM, first compound 0.00316 µM
[16] = second compound 0.316 µM, first compound 0.01 µM
[17] = second compound 0.316 µM, first compound 0.0316 µM
[18] = second compound 0.316 µM, first compound 0.1 µM
[19] = second compound 1 µM, first compound 0.000316 µM
[20] = second compound 1 µM, first compound 0.001 µM
[21] = second compound 1 µM, first compound 0.00316 µM
[22] = second compound 1 µM, first compound 0.01 µM
[23] = second compound 1 µM, first compound 0.0316 µM
[24] = second compound 1 µM, first compound 0.1 µM
[25] = second compound 3.16 µM, first compound 0.000316 µM
[26] = second compound 3.16 µM, first compound 0.001 µM
[27] = second compound 3.16 µM, first compound 0.00316 µM
[28] = second compound 3.16 µM, first compound 0.01 µM
[29] = second compound 3.16 µM, first compound 0.0316 µM
[30] = second compound 3.16 µM, first compound 0.1 µM
[31] = second compound 10 µM, first compound 0.000316 µM
[32] = second compound 10 µM, first compound 0.001 µM
[33] = second compound 10 µM, first compound 0.00316 µM
[34] = second compound 10 µM, first compound 0.01 µM
[35] = second compound 10 µM, first compound 0.0316 µM
[36] = second compound 10 µM, first compound 0.1 µM
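Note: spheroids exposed to agents for seven days before readout.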

CC(=O)c1c(C)c2cnc(Nc3ccc(N4CCNCC4)cn3)nc2n(C2CCCC2)c1=O + CC(Nc1ncnc2nc[nH]c12)c1cc2cccc(Cl)c2c(=O)n1-c1ccccc1
inactive: viability, T/C [1] 91.8% | viability, T/C [2] 91.4% | viability, T/C [3] 87.8% | viability, T/C [4] 94.2% | viability, T/C [5] 96% | viability, T/C [6] 102% | viability, T/C [7] 97.4% | viability, T/C [8] 106% | viability, T/C [9] 94.4% | viability, T/C [10] 85.8% | viability, T/C [11] 105% | viability, T/C [12] 112% | viability, T/C [13] 105% | viability, T/C [14] 89.7% | viability, T/C [15] 104% | viability, T/C [16] 97.2% | viability, T/C [17] 104% | viability, T/C [18] 101% | viability, T/C [19] 99.9% | viability, T/C [20] 109% | viability, T/C [21] 84.1% | viability, T/C [22] 95.3% | viability, T/C [23] 107% | viability, T/C [24] 112% | viability, T/C [25] 99.2% | viability, T/C [26] 86.5% | viability, T/C [27] 100% | viability, T/C [28] 97.7% | viability, T/C [29] 105% | viability, T/C [30] 104% | viability, T/C [31] 91.4% | viability, T/C [32] 94.8% | viability, T/C [33] 89.9% | viability, T/C [34] 97.4% | viability, T/C [35] 99.8% | viability, T/C [36] 86.6%
> 100 nM: IC50 (second compound 0.0316 µM) | IC50 (second compound 0.1 µM) | IC50 (second compound 0.316 µM) | IC50 (second compound 1 µM) | IC50 (second compound 3.16 µM) | IC50 (second compound 10 µM)

CC(C)n1nc(-c2ccc3oc(N)nc3c2)c2c(N)ncnc21 + CC(Nc1ncnc2nc[nH]c12)c1cc2cccc(Cl)c2c(=O)n1-c1ccccc1
> 100 nM: IC50 (second compound 0.0316 µM) | IC50 (second compound 0.1 µM) | IC50 (second compound 0.316 µM) | IC50 (second compound 1 µM) | IC50 (second compound 3.16 µM) | IC50 (second compound 10 µM)
inactive: viability, T/C [1] 87.4% | viability, T/C [2] 101% | viability, T/C [3] 96% | viability, T/C [4] 76.7% | viability, T/C [5] 66.4% | viability, T/C [6] 59.6% | viability, T/C [7] 97.8% | viability, T/C [8] 88.2% | viability, T/C [9] 78% | viability, T/C [10] 72.9% | viability, T/C [11] 77.4% | viability, T/C [12] 62.3% | viability, T/C [13] 101% | viability, T/C [14] 110% | viability, T/C [15] 105% | viability, T/C [16] 92.7% | viability, T/C [17] 65.9% | viability, T/C [18] 56.4% | viability, T/C [19] 111% | viability, T/C [20] 97.8% | viability, T/C [21] 84.9% | viability, T/C [22] 88.5% | viability, T/C [23] 63% | viability, T/C [24] 59.2% | viability, T/C [25] 87.8% | viability, T/C [26] 101% | viability, T/C [27] 94.6% | viability, T/C [28] 75.2% | viability, T/C [29] 66.8% | viability, T/C [30] 61.2% | viability, T/C [31] 91.3% | viability, T/C [32] 92% | viability, T/C [33] 88.9% | viability, T/C [34] 80.3% | viability, T/C [35] 68.9% | viability, T/C [36] 63.6%
